For orientation: pEC50 means the negative decadic logarithm of the EC50, by convention in mol/L.

pEC50: −log10 of the molar value. Starred links: 1 amine or outer side, 2 acyl side, 3 side chain; linkers in the order of their positions; H or OH if unused. Non-standard residues stand in square brackets, D forms with d. Residues, ends and D or L forms follow the SMILES beside them. *: point of attachment. Oic = O=C(O)[C@@H]1C[C@@H]2CCCC[C@@H]2N1; Phe(4-Cl) = N[C@@H](Cc1ccc(Cl)cc1)C(=O)O; dPhe(4-Cl) = N[C@H](Cc1ccc(Cl)cc1)C(=O)O; γGlu = O=C(O)[C@H](CCC(=O)[*:2])N[*:1]; 2Nal = N[C@@H](Cc1ccc2ccccc2c1)C(=O)O; NMeR = CN[C@@H](CCCNC(=N)N)C(=O)O; Palmitoyl = CCCCCCCCCCCCCCCC(=O)*; Tridecanoyl = CCCCCCCCCCCCC(=O)*; hArg = N=C(N)NCCCC[C@H](N)C(=O)O; 3Pal = N[C@@H](Cc1cccnc1)C(=O)O; Cha = N[C@@H](CC1CCCCC1)C(=O)O; αMeL = CC(C)C[C@](C)(N)C(=O)O; αMeOrn = C[C@](N)(CCCN)C(=O)O; Tle = CC(C)(C)[C@H](N)C(=O)O; αMeP = C[C@@]1(C(=O)O)CCCN1; β3hP = O=C(O)C[C@@H]1CCCN1; β3hS = N[C@@H](CO)CC(=O)O; Nle = CCCC[C@H](N)C(=O)O; Orn = NCCC[C@H](N)C(=O)O; AEEA = NCCOCCOCC(=O)O; Aib = CC(C)(N)C(=O)O; βAla = NCCC(=O)O

Consider 14 compounds from patent publication US11807693B2 (priority 2014, dated 2023).

One test deals with T1, human APJ receptor (Homo sapiens, UniProt P35414).
T1 construct: expressed in transfected cells
T1 sequence (P35414 1-380): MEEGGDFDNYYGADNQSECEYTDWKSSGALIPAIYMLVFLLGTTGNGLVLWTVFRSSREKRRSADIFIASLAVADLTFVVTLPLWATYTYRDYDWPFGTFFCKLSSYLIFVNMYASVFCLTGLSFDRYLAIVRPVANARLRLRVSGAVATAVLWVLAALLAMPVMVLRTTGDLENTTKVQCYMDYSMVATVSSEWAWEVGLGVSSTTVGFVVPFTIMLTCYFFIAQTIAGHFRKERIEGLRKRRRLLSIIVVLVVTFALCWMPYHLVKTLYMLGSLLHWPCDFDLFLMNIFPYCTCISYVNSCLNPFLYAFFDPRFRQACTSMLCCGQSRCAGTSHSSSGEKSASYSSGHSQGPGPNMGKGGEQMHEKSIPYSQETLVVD
As to the kind of experiment: [35S] GTPγS assay, human APJ receptor. Type of test: biochemical.
Details: not given
In general terms: Binding of GTPγS marks nucleotide exchange on a G protein.
For `CCCC[C@H](NC(=O)[C@@H]1C[C@@H]2CCCC[C@@H]2N1C(=O)CNC(=O)[C@H](CCCCN)NC(=O)[C@H](Cc1c[nH]cn1)NC(=O)[C@H](CO)NC(=O)[C@H](CC1CCCCC1)NC(=O)[C@H](CCCCNC(=N)N)NC(=O)[C@@H]1CCCN1C(=O)[C@H](CCCNC(=N)N)NC(=O)[C@H](CCC(N)=O)NC(=O)[C@H](CCCNC(=N)N)NC(C)=O)C(=O)N1CCC[C@H]1C(=O)N[C@@H](Cc1ccc(Cl)cc1)C(=O)O` [compound 17] (Ac-RQRP[hArg][Cha]SHKG[Oic][Nle]P[Phe(4-Cl)]-OH), the negative-log EC50 (pEC50) is 9.77.
`CCCC[C@H](NC(=O)[C@@H]1CCCN1C(=O)CNC(=O)[C@H](CCCCN)NC(=O)[C@H](Cc1c[nH]cn1)NC(=O)[C@H](CO)NC(=O)[C@H](CC1CCCCC1)NC(=O)[C@H](CCCCNC(=N)N)NC(=O)[C@@H]1CCCN1C(=O)[C@H](CCCNC(=N)N)NC(=O)[C@H](CCC(N)=O)NC(=O)[C@H](CCCCNC(=N)N)NC(=O)[C@H](CCCCNC(=N)N)NC(=O)[C@H](Cc1ccccc1)NC(=O)[C@H](CCCN)NC(C)=O)C(=O)N[C@@H](Cc1ccc2ccccc2c1)C(=O)O` [compound 49] (Ac-[Orn]F[hArg][hArg]QRP[hArg][Cha]SHKGP[Nle][2Nal]-OH) gave a pEC50 of 9.80.

The test is the same for the next values; noted with them: Table 16.
`CCCCCCCCCCCCC(=O)N[C@@H](CCC(=O)NCCOCCOCC(=O)NCCOCCOCC(=O)N[C@H](CCC(N)=O)C(=O)N[C@@H](CCCNC(=N)N)C(=O)N1CCC[C@H]1C(=O)N(C)[C@@H](CCCNC(=N)N)C(=O)N[C@@](C)(CC(C)C)C(=O)N[C@@H](CO)CC(=O)N[C@@H](Cc1c[nH]cn1)C(=O)N[C@@H](CCCCN)C(=O)NCC(=O)N1[C@H](C(=O)N[C@@H](CCCC)C(=O)N2CCC[C@@]2(C)C(=O)N[C@@H](Cc2ccc(Cl)cc2)C(=O)O)C[C@@H]2CCCC[C@@H]21)C(=O)O` [compound 518] ({Tridecanoyl-γGlu-AEEA-AEEA}-[dQ]RP[NMeR][αMeL][β3hS]HKG[Oic][Nle][αMeP][Phe(4-Cl)]-OH) gave a negative-log EC50 (pEC50) of 9.95.
On to `CCCCCCCCCCCCC(=O)N[C@@H](CCC(=O)NCCOCCOCC(=O)NCCOCCOCC(=O)N[C@@H](CCCNC(=N)N)C(=O)N[C@@H](CCC(N)=O)C(=O)N[C@@H](CCCNC(=N)N)C(=O)N1CCC[C@H]1C(=O)N[C@@H](CCCCN)C(=O)N[C@@H](CC1CCCCC1)C(=O)N[C@@H](C)C(=O)N[C@@H](C)C(=O)N[C@@H](CCCC)C(=O)NCC(=O)N1[C@H](C(=O)N[C@@H](CCCC)C(=O)N2CCC[C@H]2C(=O)N[C@@H](Cc2ccc(Cl)cc2)C(=O)O)C[C@@H]2CCCC[C@@H]21)C(=O)O` [compound 346] ({Tridecanoyl-γGlu-AEEA-AEEA}-RQRPK[Cha]AA[Nle]G[Oic][Nle]P[Phe(4-Cl)]-OH), for which the pEC50 is 8.56.
As to `CCCCCCCCCCCCC(=O)N[C@@H](CCC(=O)NCCOCCOCC(=O)NCCOCCOCC(=O)N[C@@H](CCC(N)=O)C(=O)N[C@@H](CCCNC(=N)N)C(=O)N1CCC[C@H]1C(=O)N(C)[C@@H](CCCNC(=N)N)C(=O)N[C@@H](CC1CCCCC1)C(=O)N[C@@H](CO)C(=O)N[C@H](C(=O)N[C@@H](CCCCN)C(=O)NCC(=O)N1[C@H](C(=O)N[C@@H](CCCC)C(=O)N2CCC[C@H]2C(=O)N[C@@H](Cc2ccc(Cl)cc2)C(=O)O)C[C@@H]2CCCC[C@@H]21)C(C)(C)C)C(=O)O` [compound 438] ({Tridecanoyl-γGlu-AEEA-AEEA}-QRP[NMeR][Cha]S[Tle]KG[Oic][Nle]P[Phe(4-Cl)]-OH), the pEC50 was 8.83.
Same read-out and setting: to `CCCCCCCCCCCCC(=O)N[C@@H](CCC(=O)NCCOCCOCC(=O)NCCOCCOCC(=O)N[C@@H](CCC(N)=O)C(=O)N[C@@H](CCCNC(=N)N)C(=O)N1CCC[C@H]1C(=O)N(C)[C@@H](CCCNC(=N)N)C(=O)N[C@@H](CC1CCCCC1)C(=O)N[C@@H](CO)C(=O)N[C@@H](Cc1c[nH]cn1)C(=O)N[C@@H](CCCCN)C(=O)NCC(=O)N1[C@H](C(=O)N[C@@H](CCCC)C(=O)N[C@@H](Cc2ccc(Cl)cc2)C(=O)O)C[C@@H]2CCCC[C@@H]21)C(=O)O` [compound 409] ({Tridecanoyl-γGlu-AEEA-AEEA}-QRP[NMeR][Cha]SHKG[Oic][Nle][Phe(4-Cl)]-OH) belongs 9.00; to `CCCCCCCCCCCCC(=O)N[C@@H](CCC(=O)NCCOCCOCC(=O)NCCOCCOCC(=O)N[C@@H](CCC(N)=O)C(=O)N[C@@H](CCCNC(=N)N)C(=O)N1CCC[C@H]1C(=O)N(C)[C@@H](CCCNC(=N)N)C(=O)N[C@@H](CC1CCCCC1)C(=O)N[C@@H](CO)C(=O)N[C@@H](C)C(=O)N[C@@H](CCCCN)C(=O)NCC(=O)N1[C@H](C(=O)N[C@@H](CCCC)C(=O)N2CCC[C@H]2C(=O)N[C@@H](Cc2ccc(Cl)cc2)C(=O)O)C[C@@H]2CCCC[C@@H]21)C(=O)O` [compound 419] ({Tridecanoyl-γGlu-AEEA-AEEA}-QRP[NMeR][Cha]SAKG[Oic][Nle]P[Phe(4-Cl)]-OH), 9.31.
On to `CCCCCCCCCCCCC(=O)N[C@@H](CCC(=O)NCCOCCOCC(=O)NCCOCCOCC(=O)N[C@@H](CCC(N)=O)C(=O)N[C@@H](CCCCNC(=N)N)C(=O)N1CCC[C@H]1C(=O)N(C)[C@@H](CCCNC(=N)N)C(=O)N[C@@H](CC1CCCCC1)C(=O)N[C@@H](CO)C(=O)N[C@@H](Cc1c[nH]cn1)C(=O)N[C@@H](CCCCN)C(=O)NCC(=O)N1CCC[C@H]1C(=O)N[C@@H](CCCC)C(=O)N1CCC[C@H]1C(=O)N[C@@H](Cc1ccc(Cl)cc1)C(=O)O)C(=O)O` [compound 408] ({Tridecanoyl-γGlu-AEEA-AEEA}-Q[hArg]P[NMeR][Cha]SHKGP[Nle]P[Phe(4-Cl)]-OH), for which the pEC50 is 10.11.
Same read-out and setting: to `CCCCCCCCCCCCC(=O)N[C@@H](CCC(=O)NCCOCCOCC(=O)NCCOCCOCC(=O)N[C@H](CCC(N)=O)C(=O)N[C@@H](CCCCNC(=N)N)C(=O)N1CCC[C@H]1C(=O)N(C)[C@@H](CCCNC(=N)N)C(=O)N[C@@H](CC1CCCCC1)C(=O)N[C@@H](CO)C(=O)N[C@@H](Cc1c[nH]cn1)C(=O)N[C@@H](CCCCN)C(=O)NCCC(=O)N1[C@H](C(=O)N[C@@H](CCCC)C(=O)N2CCC[C@H]2C(=O)N[C@H](Cc2ccc(Cl)cc2)C(=O)O)C[C@@H]2CCCC[C@@H]21)C(=O)O` [compound 294] ({Tridecanoyl-γGlu-AEEA-AEEA}-[dQ][hArg]P[NMeR][Cha]SHK[βAla][Oic][Nle]P[dPhe(4-Cl)]-OH) belongs under 5.38.
In the case of `CCCCCCCCCCCCC(=O)N[C@@H](CCC(=O)NCCOCCOCC(=O)NCCOCCOCC(=O)N[C@H](CCC(N)=O)C(=O)N[C@H](CCC(=O)O)C(=O)N1CCC[C@H]1C(=O)N(C)[C@@H](CCCNC(=N)N)C(=O)N[C@@H](CC1CCCCC1)C(=O)N[C@@H](CO)C(=O)N[C@@H](Cc1c[nH]cn1)C(=O)N[C@@H](CCCCN)C(=O)NCC(=O)N1[C@H](C(=O)N[C@@H](CCCC)C(=O)NC(C)(C)C(=O)N[C@@H](Cc2ccc(Cl)cc2)C(=O)O)C[C@@H]2CCCC[C@@H]21)C(=O)O` [compound 525] ({Tridecanoyl-γGlu-AEEA-AEEA}-[dQ][dE]P[NMeR][Cha]SHKG[Oic][Nle][Aib][Phe(4-Cl)]-OH), the negative-log EC50 (pEC50) was 6.80.

Staying with this test, now noted: human APJ receptor.
In the case of `CCCC[C@H](NC(=O)[C@]1(C)CCCN1C(=O)CNC(=O)[C@H](CCCCN)NC(=O)[C@H](Cc1c[nH]cn1)NC(=O)[C@H](CO)NC(=O)[C@H](CC1CCCCC1)NC(=O)[C@H](CCCNC(=N)N)N(C)C(=O)[C@@H]1CCCN1C(=O)[C@H](CCCNC(=N)N)NC(=O)[C@@H](CCC(N)=O)NC(C)=O)C(=O)NC(C)(C)C(=O)N[C@@H](Cc1ccc(Cl)cc1)C(=O)O` [compound 93] (Ac-[dQ]RP[NMeR][Cha]SHKG[αMeP][Nle][Aib][Phe(4-Cl)]-OH), the negative-log EC50 (pEC50) is 9.64.
The same measure, in the same setting: for `CC(C)C[C@@H](C(=O)N[C@@H](CO)C(=O)N[C@@H](Cc1c[nH]cn1)C(=O)N[C@@H](CCCCN)C(=O)NCC(=O)N1[C@H](C(=O)N[C@@H](Cc2ccc(I)cc2)C(=O)N2CCC[C@H]2C(=O)N[C@H](Cc2ccc(-c3ccccc3)cc2)C(=O)O)C[C@@H]2CCCC[C@@H]21)N(C)C(=O)[C@@H](CCCNC(=N)N)NC(=O)[C@@H]1CCCN1C(=O)[C@H](CCCCNC(=N)N)NC(=O)[C@H](CCC(N)=O)NC(=O)[C@@H](CCCNC(=N)N)NC(=O)[C@H](CCCCNC(=N)N)NC(=O)COCCOCCNC(=O)COCCOCCNC(=O)CC[C@H](NC(=O)CCCCCCCCC(=O)O)C(=O)O` [compound 291] the value was 8.47; for `CCCCCCCCCCCCCCCC(=O)N[C@@H](CCC(=O)NCCOCCOCC(=O)NCCOCCOCC(=O)N[C@H](CCC(N)=O)C(=O)N[C@@H](CCCNC(=N)N)C(=O)N1CCC[C@H]1C(=O)N(C)[C@@H](CCCNC(=N)N)C(=O)N[C@@](C)(CC(C)C)C(=O)N[C@@H](CO)C(=O)N[C@@H](Cc1c[nH]cn1)C(=O)N[C@@](C)(CCCN)C(=O)NCC(=O)N1[C@H](C(=O)N[C@@H](CCCC)C(=O)N2CCC[C@H]2CC(=O)N[C@@H](Cc2ccc(Cl)cc2)C(=O)O)C[C@@H]2CCCC[C@@H]21)C(=O)O` [compound 635] ({Palmitoyl-γGlu-AEEA-AEEA}-[dQ]RP[NMeR][αMeL]SH[αMeOrn]G[Oic][Nle][β3hP][Phe(4-Cl)]-OH), 8.79.
On the same count and under the same terms, for `CCCCCCCCCCCCCCCC(=O)N[C@@H](CCC(=O)NCCOCCOCC(=O)NCCOCCOCC(=O)N[C@H](CCC(N)=O)C(=O)N[C@@H](CCCNC(=N)N)C(=O)N1CCC[C@H]1C(=O)N(C)[C@@H](CCCNC(=N)N)C(=O)N[C@@](C)(CC(C)C)C(=O)N[C@@H](CO)C(=O)N[C@@H](Cc1c[nH]cn1)C(=O)N[C@@H](Cc1cccnc1)C(=O)NCC(=O)N1[C@H](C(=O)N[C@@H](CCCC)C(=O)N2CCC[C@H]2CC(=O)N[C@@H](Cc2ccc(Cl)cc2)C(=O)O)C[C@@H]2CCCC[C@@H]21)C(=O)O` [compound 636] ({Palmitoyl-γGlu-AEEA-AEEA}-[dQ]RP[NMeR][αMeL]SH[3Pal]G[Oic][Nle][β3hP][Phe(4-Cl)]-OH) the value was 8.80.
